Results on 1 molecule are retold here after PMC7948422, “Repurposing p97 inhibitors for chemical modulation of the bacterial ClpB–DnaK bichaperone system” (The Journal of Biological Chemistry, 2020).

Several values for one entry are separate records, joined by “and”; a condition that tells them apart may be missing. Equal values may be shown once.

For data set [1], the target named is T1, wt ClpB (Escherichia coli, UniProt P63284).
T1 construct: made in house
Description: Surface plasmon resonance, immobilized wt ClpB. The data set is classed as binding. As for the experimental part:
(§1) ClpB, DnaK, and the NBD of DnaK were extensively dialyzed against the SPR buffer (20-mM Hepes, pH 7.4, 150-mM NaCl, 20-mM MgCl2, 1-mM EDTA, 1-mM DTT). After dialysis, the protein concentration was determined by the Bradford method. The DBeQ–protein interactions were studied using a Biacore T200 instrument (GE Healthcare) at 25 °C. The proteins were diluted to 300 μg/ml in 10-mM sodium acetate buffer (pH 5 for ClpB DnaK or pH 4 for NBD) and immobilized on HC1500M sensor chips (Xantec) by standard amine coupling chemistry as described previously ([70]). A reference flow cell was created by ethyl(dimethylaminopropyl) carbodiimide/N-hydroxysuccinimide activation followed by quenching with 1 M ethanolamine (pH 9.0). Solvent correction curves were obtained at the beginning and end and after every 50 injection cycles by injecting varying DMSO concentrations (4.0, 4.4, 4.6, 4.8, 5.0, 5.2, 5.4, and 5.9% [v/v]). All experiments were performed using a flow rate of 30 μl/min.
(§2) Binding isotherms were obtained with the ligand diluted to different concentrations in the SPR running buffer HBSMTD (20-mM Hepes, pH 7.4, 140-mM NaCl, 20-mM MgCl2, 5% (v/v) DMSO, 0.005% (v/v) Tween-20). Replicate injections were performed for all samples, and a buffer-only injection was performed for every 12 injection cycles. To test the structural integrity of ClpB after immobilization on the sensor chips, we performed control titrations with ATPγS and adenosine. The dissociation constants determined from those experiments were ∼20 μM for ATPγS and ∼2 mM for adenosine. […] Moreover, the immobilized ClpB discriminated between a nucleotide analog and a nucleoside, which indicated an adequate structural integrity of ClpB on the sensor chips.
The resulting sensorgrams were analyzed using Biacore T200 Evaluation Software v3.0 according to the following procedure. Solvent correction curves were generated and applied to all data sets, and all sensorgrams were double-referenced by subtracting the most recent buffer blank injection. The signal immediately before injection stop of these corrected sensorgrams was treated as the binding response. GraphPad Prism was used for nonlinear least-squares fitting of the model assuming either noncooperative or cooperative binding of DBeQ to DnaK and ClpB, respectively.
(In general: SPR reads the build-up and loss of mass on a sensor chip optically.)

Data set [2] can be described thus: Solubility of DBeQ in aqueous buffer (absorbance/turbidity). The format is physicochemical. Particulars: aqueous ATPase assay buffer, 1% DMSO. The protocol:
Supplementary Figure 3. Solubility of DBeQ in aqueous solution. Solutions of DBeQ
were prepared in the ATPase assay buffer containing 1% DMSO. (A) DBeQ absorbance at
320 nm (blue) and solution turbidity at 400 nm (red) for increasing DBeQ concentrations. (B)
UV absorption spectrum of 100 μM DBeQ.
Supplementary Figure 4. The ATP-binding modules (D1 and D2) separated with the
middle domain (MD) in E. coli ClpB (PDB entry: 5OG1). Trp462 (red), Trp543 (magenta),
and the ATP-analog, ATPγS (dark blue) bound in D1 and D2 are shown with a “stick”
representation. Image generated using PyMOL 1.3 (Schrödinger LLC, www.pymol.com). […]

Data set [3] concerns the target T2, DnaK (Escherichia coli, UniProt P0A6Y8).
T2 construct: full-length E. coli DnaK (residues 1–638); made in house; host or cells: E. coli BL21(DE3)
As to the kind of experiment: Surface plasmon resonance, immobilized DnaK. The format is binding. As for the experimental part: as §1, with “All experiments were performed using a flow rate of 30 μl/min.” left out
Binding isotherms were obtained with the ligand diluted to different concentrations in the SPR running buffer HBSMTD (20-mM Hepes, pH 7.4, 140-mM NaCl, 20-mM MgCl2, 5% (v/v) DMSO, 0.005% (v/v) Tween-20). […] The dissociation constants determined from those experiments were ∼20 μM for ATPγS and ∼2 mM for adenosine. […]
The resulting sensorgrams were analyzed using Biacore T200 Evaluation Software v3.0 according to the following procedure. […]

Data set [4] concerns the target T3, ClpB W543F (Escherichia coli, UniProt P63284, W543F).
T3 construct: made in house
As to the kind of experiment: Surface plasmon resonance, immobilized ClpB W543F. The data set is classed as binding. The protocol:
as §1, §2
(§3) The resulting sensorgrams were analyzed using Biacore T200 Evaluation Software v3.0 according to the following procedure. Solvent correction curves were generated and applied to all data sets, and all sensorgrams were double-referenced by subtracting the most recent buffer blank injection. […]

In data set [5] the target is T4, ClpB W462F (Escherichia coli, UniProt P63284, W462F).
T4 construct: made in house
T4 sequence (P63284 whole entry W462F, looked up): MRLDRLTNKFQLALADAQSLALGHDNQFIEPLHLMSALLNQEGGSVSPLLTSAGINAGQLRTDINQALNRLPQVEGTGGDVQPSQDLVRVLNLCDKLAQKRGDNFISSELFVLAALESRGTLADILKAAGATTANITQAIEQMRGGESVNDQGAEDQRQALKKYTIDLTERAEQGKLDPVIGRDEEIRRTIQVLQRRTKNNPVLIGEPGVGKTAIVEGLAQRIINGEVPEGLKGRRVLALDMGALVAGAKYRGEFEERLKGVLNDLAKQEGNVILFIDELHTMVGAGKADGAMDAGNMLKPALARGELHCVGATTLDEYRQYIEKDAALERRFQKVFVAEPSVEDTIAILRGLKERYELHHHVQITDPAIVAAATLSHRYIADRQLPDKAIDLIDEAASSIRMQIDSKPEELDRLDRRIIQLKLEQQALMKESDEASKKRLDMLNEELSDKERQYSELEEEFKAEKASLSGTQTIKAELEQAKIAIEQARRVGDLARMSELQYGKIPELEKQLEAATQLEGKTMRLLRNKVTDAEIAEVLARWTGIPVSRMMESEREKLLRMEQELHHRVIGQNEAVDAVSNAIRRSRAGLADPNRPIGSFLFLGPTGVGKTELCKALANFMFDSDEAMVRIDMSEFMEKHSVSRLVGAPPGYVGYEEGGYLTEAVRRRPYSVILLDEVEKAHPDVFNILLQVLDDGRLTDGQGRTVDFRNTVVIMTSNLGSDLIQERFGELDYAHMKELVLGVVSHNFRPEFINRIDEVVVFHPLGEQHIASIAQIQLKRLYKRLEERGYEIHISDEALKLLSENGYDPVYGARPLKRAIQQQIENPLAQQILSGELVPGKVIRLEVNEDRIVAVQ
As to the kind of experiment: Surface plasmon resonance, immobilized ClpB W462F. The data set is classed as binding. The protocol: as §1, §2, §3

In data set [6] the test system is E. coli dnaK756. Description: Bacterial viability, dnaK756. The format is cell-based, Escherichia coli. Particulars: 45 °C. The protocol: (§4) E. coli MC4100, MC4100ΔclpB, dnaK103, and dnaK756 strains were used to determine an influence of DBeQ on bacterial growth and viability. Bacteria were maintained in the LB media, and in the case of the MC4100ΔclpB strain, LB was supplemented with 30 μg/ml kanamycin. All experiments were initiated by preparing overnight cultures inoculated from single colonies and grown at 37 °C. The dnaK103 and dnaK756 overnight cultures were grown at 30 °C. On the following day, the cultures were diluted 100-fold in 10 ml of LB without antibiotics and incubated at 37 °C. The culture optical density was monitored at 600 nm. When absorbance at 600 nm reached 0.4, the culture was divided into 1-ml aliquots and supplemented with 10 μl of DMSO or different concentrations of DBeQ in DMSO. The samples were immediately transferred into an incubator/shaker at temperature 37, 45, or 50 °C. Bacteria were cultured for up to 4 h with shaking (200 RPM). At specific time points, 100 μl of each culture was withdrawn and serially diluted in sterile 0.9% NaCl up to 10^6-fold dilution. To estimate the number of viable cells, 5 μl or 10 μl of the diluted cultures was spread on the LB-agar plate without an antibiotic. […] On the following day, the bacterial colonies were counted and the colony-forming units/ml were calculated.

The test system of data set [7] is E. coli dnaK103. As to the kind of experiment: Bacterial viability, dnaK103. Particulars: 45 °C. The format is cell-based, Escherichia coli. As for the experimental part:
as §4

T1 sequence (P63284 whole entry): as the sequence (P63284 whole entry W462F, looked up) above, with F462W counted along it
T2 sequence (P0A6Y8 whole entry, the tested form may be a part): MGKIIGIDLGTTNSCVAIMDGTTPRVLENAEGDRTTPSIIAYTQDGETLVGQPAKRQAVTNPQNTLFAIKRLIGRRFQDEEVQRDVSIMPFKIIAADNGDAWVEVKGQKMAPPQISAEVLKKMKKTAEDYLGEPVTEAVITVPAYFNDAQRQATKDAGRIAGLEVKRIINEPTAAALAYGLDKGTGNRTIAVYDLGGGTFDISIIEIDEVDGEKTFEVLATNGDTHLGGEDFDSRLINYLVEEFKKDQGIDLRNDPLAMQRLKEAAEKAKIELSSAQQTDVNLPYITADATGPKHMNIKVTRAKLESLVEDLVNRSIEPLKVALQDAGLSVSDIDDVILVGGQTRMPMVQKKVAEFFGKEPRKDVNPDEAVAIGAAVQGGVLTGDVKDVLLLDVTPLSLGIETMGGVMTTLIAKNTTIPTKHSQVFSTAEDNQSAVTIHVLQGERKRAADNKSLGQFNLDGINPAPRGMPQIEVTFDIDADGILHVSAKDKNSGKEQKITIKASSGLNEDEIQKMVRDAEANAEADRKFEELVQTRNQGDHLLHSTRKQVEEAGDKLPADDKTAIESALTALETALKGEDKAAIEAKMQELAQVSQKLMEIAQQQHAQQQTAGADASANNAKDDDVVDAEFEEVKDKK
T3 sequence (P63284 whole entry W543F, looked up): as the sequence (P63284 whole entry W462F, looked up) above, with F462W, W543F counted along it

Take `c1ccc(CNc2nc(NCc3ccccc3)c3ccccc3n2)cc1` [DBeQ, N^2,N^4-dibenzylquinazoline-2,4-diamine]: the “Bmax (SPR signal at saturation), ClpB” value in data set [1] is 1.09 ± 0.02. For the same molecule, the “Hill coefficient, DBeQ binding to ClpB” value in data set [1] (SPR, cooperative binding model) was 2.3 ± 0.3 and ~2.3 and > 2. Besides, the Kd is 64.4 µM and ~60 µM in data set [1] (apparent Kd, DBeQ binding to ClpB, SPR, 25 °C, cooperative binding model); 105 µM and ~100 µM in data set [3] (apparent Kd, DBeQ binding to DnaK, SPR, non-cooperative model, approximate, close to ligand solubility limit); 59.1 ± 4.1 µM in data set [4]; 61.4 ± 4.7 µM in data set [5]. Further, the “DBeQ concentrations obeying Beer–Lambert law without significant turbidity increase” value in data set [2] was “up to 100 μM”. Moreover, the “Bmax (SPR signal at saturation), DnaK” value in data set [3] came out at 2.07 ± 0.20. Further, the “Bmax (SPR signal at saturation), ClpB W543F” value in data set [4] (SPR) is given as 1.07 ± 0.03. Further, in data set [4] (SPR), the “Hill coefficient, ClpB W543F” value came to 2.4 ± 0.4. Further, the “Bmax (SPR signal at saturation), ClpB W462F” value in data set [5] (SPR) came to 1.08 ± 0.03. Also, the “Hill coefficient, ClpB W462F” value in data set [5] (SPR) came to 2.4 ± 0.4. Moreover, in data set [6], the “effect on viability of dnaK756” value is reported as “not affected”. Besides, the “effect on viability of dnaK103” value in data set [7] is recorded as “suppressed viability”.
